Source: PubChem BioAssay AID248 (DTP/NCI, 2004)
Toxic doses and inconclusive results are not listed. Rule as the data show it: active = T/C of 150% or more; inactive = T/C below 125%.

Test system: L1210 leukemia ip in BDF1 mice, survival T/C
Test: NCI In Vivo Anticancer Drug Screen. Data for tumor model L1210 Leukemia (intraperitoneal) in B6D2F1 (BDF1) mice
Conditions: endpoint: mean survival time, higher = longer survival
Method in brief: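 In this screen, tumor-bearing mice given compound are compared to those given vehicle, and their survival values are reported as a treated-to-control quotient.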

Measured: T/C

O=C(NC(NC(=O)c1ccc(Cl)cc1)C(Cl)(Cl)Cl)c1ccc(Cl)cc1
inactive: dose: 25.0 mg/kg/injection, schedule: Q01DX009 (ip), vehicle: saline with Tween-80 100 % of control | dose: 50.0 mg/kg/injection, schedule: Q01DX009 (ip), vehicle: saline with Tween-80 93 % of control | dose: 100.0 mg/kg/injection, schedule: Q01DX009 (ip), vehicle: saline with Tween-80 92 % of control | dose: 100.0 mg/kg/injection, schedule: Q04DX003 (ip), vehicle: saline with Tween-80 92 % of control

O=C1CCC=Cc2c(O)ccc(O)c21
inactive: dose: 100.0 mg/kg/injection, schedule: Q01DX001 (ip), vehicle: carboxymethylcellulose (CMC) 91 % of control | dose: 200.0 mg/kg/injection, schedule: Q01DX001 (ip), vehicle: carboxymethylcellulose (CMC) 93 % of control | dose: 400.0 mg/kg/injection, schedule: Q01DX001 (ip), vehicle: carboxymethylcellulose (CMC) 96 % of control

Nc1nc(N)nc(-c2ccccc2N=NN2CCCC2)n1
inactive: dose: 100.0 mg/kg/injection, schedule: Q04DX003 (ip), vehicle: Klucel (hydroxypropylcellulose) (HPC) 105 % of control | dose: 200.0 mg/kg/injection, schedule: Q04DX003 (ip), vehicle: Klucel (hydroxypropylcellulose) (HPC) 98 % of control | dose: 400.0 mg/kg/injection, schedule: Q04DX003 (ip), vehicle: Klucel (hydroxypropylcellulose) (HPC) 95 % of control

O=C1C=Cc2c(ccc3c4c(ccc23)=CC(=O)C=C4)=C1
inactive: dose: 100.0 mg/kg/injection, schedule: Q01DX001 (ip), vehicle: saline with Tween-80 88 % of control | dose: 200.0 mg/kg/injection, schedule: Q01DX001 (ip), vehicle: saline with Tween-80 90 % of control | dose: 400.0 mg/kg/injection, schedule: Q01DX001 (ip), vehicle: saline with Tween-80 90 % of control

O=C(O)C1CCC1(C(=O)O)C(=O)O (stereo unspecified)
inactive: dose: 100.0 mg/kg/injection, schedule: Q04DX002 (ip), vehicle: saline 94 % of control | dose: 200.0 mg/kg/injection, schedule: Q04DX002 (ip), vehicle: saline 90 % of control | dose: 400.0 mg/kg/injection, schedule: Q04DX002 (ip), vehicle: saline 94 % of control

N=C(N)SCc1cccc(Cl)c1
inactive: dose: 25.0 mg/kg/injection, schedule: Q04DX002 (ip), vehicle: saline with Tween-80 100 % of control | dose: 50.0 mg/kg/injection, schedule: Q04DX002 (ip), vehicle: saline with Tween-80 93 % of control | dose: 100.0 mg/kg/injection, schedule: Q04DX002 (ip), vehicle: saline with Tween-80 90 % of control

Nc1nc2nnc(CNc3ccc(C(=O)NC(CCC(=O)O)C(=O)O)cc3)nc2c(=O)[nH]1 (stereo unspecified)
inactive: dose: 100.0 mg/kg/injection, schedule: Q01DX001 (ip), vehicle: Klucel (hydroxypropylcellulose) (HPC) 94 % of control | dose: 200.0 mg/kg/injection, schedule: Q01DX001 (ip), vehicle: Klucel (hydroxypropylcellulose) (HPC) 103 % of control
